The values below are quoted from earlier work in patent publication US20230329971A1, “MEDICINAL PRODUCT COMPRISING A FLEXIBLE PLASTIC BAG AND AN AQUEOUS, READY-TO-USE SOLUTION OF MIDAZOLAM” (B. Braun Melsungen AG, priority 2020, published 2023).

The conditions of the data set: in aqueous 5% dextrose solution or aqueous 0.9% sodium chloride solution.

Take `Cc1ncc2n1-c1ccc(Cl)cc1C(c1ccccc1F)=NC2.Cl` [midazolam hydrochloride, 8-chloro-6-(2-fluorophenyl)-1-methyl-4H-imidazo [1,5-a] [1, 4] benzodiazepine hydrochloride]: the stable over was 30 days.
